Data taken from ChEMBL document CHEMBL5247617, “4-Arylthiosemicarbazide derivatives - Pharmacokinetics, toxicity and anti-Toxoplasma gondii activity in vivo” (Eur J Med Chem, 2022).
Calls of active or inactive are those of the source. The calls are words filed in the database; no cut-off is given here.

Columns and labels:
Toxoplasma gondii [1] = experiment: Antiparasitic activity against Toxoplasma gondii RH infected in human Hs27 cells assessed as parasitic growth inhibition incubated for 24 hrs followed by [5,6-3H] uracil addition and measured after 72 hrs by liquid scintillation counter analysis; format: functional, organism-based
L929 = experiment: Cytotoxicity against mouse L929 cells assessed as reduction in cell viability incubated for 24 hrs by MTT assay; format: toxicity, cell-based; conditions: l929, 24 h
HS27 = experiment: Cytotoxicity against human HS27 cells assessed as reduction in cell viability; format: toxicity, cell-based
[2] = Toxicity in BALB/c mouse assessed as changes in body weight at 1000 mg/kg, po administered once and observed for 10 days; format: organism-based; conditions: in vivo, 240 h, time 10 day
[3] = Elimination half-life in BALB/c mouse serum at 50 mg/kg, po measured upto 60 mins by LC-MS/MS analysis; format: ADME, organism-based; conditions: in vivo, 1 h
[4] = Elimination half-life in BALB/c mouse serum at 25 mg/kg, po measured upto 60 mins by LC-MS/MS analysis; format: ADME, organism-based; conditions: in vivo, 1 h
[5] = Tmax in BALB/c mouse serum at 50 mg/kg, po measured upto 60 mins by LC-MS/MS analysis; format: ADME, organism-based; conditions: in vivo, 1 h
[6] = Tmax in BALB/c mouse serum at 25 mg/kg, po measured upto 60 mins by LC-MS/MS analysis; format: ADME, organism-based; conditions: in vivo, 1 h
[7] = AUC in BALB/c mouse serum at 50 mg/kg, po measured upto 60 mins by LC-MS/MS analysis; format: ADME, organism-based; parameters: time < 60 min, dose 50 mg/kg, route po; conditions: in vivo, 1 h
[8] = AUC in BALB/c mouse serum at 25 mg/kg, po measured upto 60 mins by LC-MS/MS analysis; format: ADME, organism-based; parameters: dose 25 mg/kg, time < 60 min, route po; conditions: in vivo, 1 h
[9] = Cmax in BALB/c mouse serum at 50 mg/kg, po measured upto 60 mins by LC-MS/MS analysis; format: ADME, organism-based; parameters: time < 60 min, dose 50 mg/kg, route po; conditions: in vivo, 1 h
[10] = Cmax in BALB/c mouse serum at 25 mg/kg, po measured upto 60 mins by LC-MS/MS analysis; format: ADME, organism-based; parameters: dose 25 mg/kg, time < 60 min, route po; conditions: in vivo, 1 h
[11] = Oral bioavailability in BALB/c mouse serum at 50 mg/kg measured upto 60 mins by LC-MS/MS analysis; format: ADME, organism-based
[12] = Oral bioavailability in BALB/c mouse serum at 25 mg/kg measured upto 60 mins by LC-MS/MS analysis; format: ADME, organism-based
[13] = Elimination half-life in BALB/c mouse brain at 50 mg/kg, po measured upto 24 hrs by LC-MS/MS analysis; format: ADME, organism-based; conditions: read-out: beta t1/2 (converted)
[14] = Elimination half-life in BALB/c mouse brain at 25 mg/kg, po measured upto 24 hrs by LC-MS/MS analysis; format: ADME, organism-based; conditions: read-out: beta t1/2 (converted)
[15] = Tmax in BALB/c mouse brain at 50 mg/kg, po measured upto 24 hrs by LC-MS/MS analysis; format: ADME, organism-based
[16] = Tmax in BALB/c mouse brain at 25 mg/kg, po measured upto 24 hrs by LC-MS/MS analysis; format: ADME, organism-based
[17] = AUC in BALB/c mouse brain at 50 mg/kg, po measured upto 24 hrs by LC-MS/MS analysis; format: ADME, organism-based; parameters: dose 50 mg/kg, time < 24 hrs, route po
[18] = AUC in BALB/c mouse brain at 25 mg/kg, po measured upto 24 hrs by LC-MS/MS analysis; format: ADME, organism-based; parameters: time < 24 hrs, dose 25 mg/kg, route po
[19] = Cmax in BALB/c mouse brain at 50 mg/kg, po measured upto 24 hrs by LC-MS/MS analysis; format: ADME, organism-based; parameters: time < 24 hrs, dose 50 mg/kg, route po; conditions: in vivo
[20] = Cmax in BALB/c mouse brain at 25 mg/kg, po measured upto 24 hrs by LC-MS/MS analysis; format: ADME, organism-based; parameters: time < 24 hrs, dose 25 mg/kg, route po; conditions: in vivo
[21] = Oral bioavailability in BALB/c mouse brain at 50 mg/kg measured upto 24 hrs by LC-MS/MS analysis; format: ADME, organism-based
[22] = Oral bioavailability in BALB/c mouse brain at 25 mg/kg measured upto 24 hrs by LC-MS/MS analysis; format: ADME, organism-based
[23] = Toxicity in BALB/c mouse assessed as changes in body weight at 25 to 50 mg/kg, po administered for 5 days and measured on day 1 and day 14; format: organism-based; conditions: in vivo, 120 h, dose 25-50 mg/kg, time 5 day
[24] = Toxicity in BALB/c mouse assessed as changes in liver weight at 50 mg/kg, po administered for 5 days and measured after 1 day; format: organism-based; conditions: in vivo, 120 h, time 5 day
[25] = Toxicity in BALB/c mouse assessed as changes in liver weight at 50 mg/kg, po administered for 5 days and measured after 14 days; format: organism-based; conditions: in vivo, 120 h, time 5 day
[26] = Toxicity in BALB/c mouse assessed as changes in serum AST level at 50 mg/kg, po administered for 5 days and measured on day 1 and day 14 by ELISA method; format: organism-based; conditions: in vivo, 120 h, time 5 day
[27] = Toxicity in BALB/c mouse assessed as increase in serum ALT level at 50 mg/kg, po administered for 5 days and measured after 14 days by ELISA method; format: organism-based; conditions: in vivo, 120 h, time 5 day
[28] = Toxicity in BALB/c mouse assessed as changes in creatinine level at 50 mg/kg, po administered for 5 days and measured on day 1 and day 14 by colorimetric assay; format: organism-based; conditions: in vivo, 120 h, time 5 day
[29] = Toxicity in BALB/c mouse assessed as disseminated necrosis of hepatocytes at 50 mg/kg, po administered for 5 days and measured after 1 day by hematoxylin-eosin staining based microscopic analysis; format: organism-based; conditions: in vivo, 120 h, time 5 day
[30] = Toxicity in BALB/c mouse assessed as disseminated necrosis of hepatocytes at 50 mg/kg, po administered for 5 days and measured after 14 days by hematoxylin-eosin staining based microscopic analysis; format: organism-based; conditions: in vivo, 120 h, time 5 day
[31] = Toxicity in BALB/c mouse assessed as changes in size of hepatocyte nuclei at 50 mg/kg, po administered for 5 days and measured after 14 days by hematoxylin-eosin staining based microscopic analysis; format: organism-based; conditions: hepatocytes, 120 h, time 5 day
[32] = Toxicity in BALB/c mouse assessed as changes in size of hepatocyte nuclei at 50 mg/kg, po administered for 5 days and measured after 1 day by hematoxylin-eosin staining based microscopic analysis; format: organism-based; conditions: hepatocytes, 120 h, time 5 day
Toxoplasma gondii [33] = experiment: Antiparasitic activity against Toxoplasma gondii RH infected in BALB/c mouse assessed as prolongation of animal survival at 25 to 50 mg/kg, po administered for 5 days starting from 24 hrs post infection by Kaplan-Meier method; format: functional, organism-based; conditions: dose 25-50 mg/kg, time 5.0 day
Toxoplasma gondii [34] = experiment: Antiparasitic activity against Toxoplasma gondii RH infected in BALB/c mouse assessed as survival rate at 50 mg/kg, po administered every 12 hrs for 5 days starting from 24 hrs post infection by Kaplan-Meier method; format: functional; conditions: 120 h, time 5 day
Toxoplasma gondii [35] = experiment: Antiparasitic activity against Toxoplasma gondii RH infected in BALB/c mouse assessed as reduction of daughter tachyzoites in blood at 25 to 50 mg/kg, po administered for 5 days starting from 24 hrs post infection by real-time qPCR analysis; format: functional, organism-based; conditions: dose 25-50 mg/kg, time 5.0 day
Toxoplasma gondii [36] = experiment: Antiparasitic activity against Toxoplasma gondii RH infected in BALB/c mouse assessed as decrease in IFNgamma level in serum at 25 to 50 mg/kg, po administered for 5 days starting from 24 hrs post infection by ELISA method; format: functional, organism-based; conditions: dose 25-50 mg/kg, time 5.0 day
Toxoplasma gondii [37] = experiment: Antiparasitic activity against Toxoplasma gondii RH infected in BALB/c mouse assessed as decrease in number of bradyzoite gene copies in brain at 50 mg/kg, po administered every 24 hrs for 5 days starting from 24 hrs post infection by real-time qPCR analysis; format: functional, organism-based; conditions: time 5.0 day
Toxoplasma gondii [38] = experiment: Antiparasitic activity against Toxoplasma gondii RH infected in BALB/c mouse assessed as reduction of bradyzoite gene copies in heart at 50 mg/kg, po administered every 12 and 24 hrs for 5 days starting from 24 hrs post infection by real-time qPCR analysis; format: functional, organism-based; conditions: time 5.0 day
Toxoplasma gondii [39] = experiment: Antiparasitic activity against Toxoplasma gondii RH infected in BALB/c mouse assessed as reduction in number of bradyzoite gene copies in muscles at 25 mg/kg, po administered every 24 hrs for 5 days starting from 24 hrs post infection by real-time qPCR analysis; format: functional; conditions: time 5 day
Toxoplasma gondii [40] = experiment: Antiparasitic activity against Toxoplasma gondii DX infected in C3H/HeOuJ mouse assessed as prolongation of survival at 25 to 50 mg/kg, po administered for 5 days starting from 24 hrs post infection by Kaplan-Meier method; format: functional, organism-based; conditions: dose 25-50 mg/kg, time 5.0 day

Cc1nc[nH]c1C(=O)NNC(=S)Nc1cccc(I)c1
IC50 (Toxoplasma gondii [1]): 25.7 µM
CC30 (L929): 213.27 µM
CC30 (HS27): 209.45 µM
Activity [2]: Non-Toxic
beta t1/2 [3]: 23.4 min
beta t1/2 [4]: 24.6 min
Tmax [5]: 15 min
Tmax [6]: 15 min
AUC [7]: 170390 ng·h/mL
AUC [8]: 150550 ng·h/mL
Cmax [9]: 35320 ng/mL
Cmax [10]: 30850 ng/mL
bioavailability [11]: 17%
bioavailability [12]: 30.1%
half-life [13]: 45.6 min
half-life [14]: 29.4 min
Tmax [15]: 30 min
Tmax [16]: 15 min
AUC at 24 h [17]: 167 ng·h/mL
AUC at 24 h [18]: 69.9 ng·h/mL
Cmax [19]: 174.33 ng/mg
Cmax [20]: 94.16 ng/mg
bioavailability [21]: 0.98%
bioavailability [22]: 0.46%
Activity [23]: Non-Toxic
Activity [24]: Non-Toxic
Activity [25]: Non-Toxic
Activity [26]: Non-Toxic
Activity [27]: Toxic
Activity [28]: Non-Toxic
Activity [29]: Toxic
Activity [30]: Toxic
Activity [31]: Toxic
Activity [32]: Toxic
Activity (Toxoplasma gondii [33]): Active
survival at 50 mg/kg (Toxoplasma gondii [34]): 20%
Activity (Toxoplasma gondii [35]): Active
Activity (Toxoplasma gondii [36]): Active
Activity (Toxoplasma gondii [37]): Active
Activity (Toxoplasma gondii [38]): Active
Activity (Toxoplasma gondii [39]): 16
Activity (Toxoplasma gondii [40]): Active
